Reference: ChEMBL document CHEMBL6074715, “Discovery of pyridine-based derivatives as FLT3 inhibitors for the treatment of acute myeloid leukemia” (Eur J Med Chem, 2025)

Test system: BaF3
Assay: Antiproliferative activity against mouse BaF3 cells harbouring TEL-VEGFR2 assessed as inhibition of cell growth measured after 72 hrs by Celltiter-glo luminescent cell viability assay
Assay type: functional, cell-based
Conditions: BaF3, 72 h

O=C(Nc1ccc(Oc2ccnc(NC(=O)N3CC(O)C3)c2)c(F)c1)c1cn(-c2cccnc2)nn1
IC50: 0.29 µM
